Literature values in patent US20140113883A1, “Therapeutic micro nutrient composition for lipolysis and sclerosis” (priority 2008, published 2014).

Tested on: red blood cells

Lysolecithin
hemolytic properties: strong hemolytic properties
